From patent US20230348421A1, “5-HT2A RECEPTOR INHIBITOR OR INVERSE AGONIST, PREPARATION METHOD THEREFOR, AND APPLICATION THEREOF” (GENEORA PHARMA (SHIJIAZHUANG) CO., LTD., priority 2020, published 2023)

Assays:
[1] = In-vivo pharmacokinetic test in rats after intragastric administration; settings: SD rats; for AUC(0-t) / Cmax / MRT last / Tmax / half-life: rat, po, 46.7 umol/kg, 20% Solutol, plasma
Experimental: Blood was collected before administration and 0.25 h, 0.5 h, 1 h, 2 h, 3 h, 4 h, 6 h, 8 h, 12 h and 24 h after administration, respectively and placed in a heparinized EP tube, and the plasma was centrifugally separated. After the plasma was pre-treated, the concentrations of compounds in the plasma were determined by LC-MS/MS, and the pharmacokinetic parameters were calculated.

[2] = In-vitro stability in dog liver microsomes; format: in vitro ADME; settings: for Remaining amount 60 min later: Dog liver microsomes 0.5 mg/mL, 1 μM, NADPH 1 mM
Experimental: (§1) • 1) formulation of test sample working solution: the test sample was diluted to 100 μM with methanol; • 2) formulation of liver microsome working solution: liver microsomes were diluted to 0.56 mg/ml with a 100 mM phosphate buffer; • 3) formulation of reduced nicotinamide adenine dinucleotide phosphate (NADPH) working solution: an appropriate amount of NADPH was weighted and diluted to 20 mM with a phosphate buffer, and then a 60 mM MgCl2 solution with the equal volume was added; • 4) formulation of stop solution: tolbutamide was diluted to 20 ng/mL with acetonitrile to serve as a stop solution containing an internal standard.
(§2) The remaining percentage of the test sample was tested 60 min later.

[3] = In-vitro stability in human liver microsomes; format: in vitro ADME; settings: for Remaining amount 60 min later: Human liver microsomes 0.5 mg/mL, 1 μM, NADPH 1 mM
Experimental: as §1, §2

5-HT2A receptor [4] = molecular target: T1, 5-HT2A receptor (Homo sapiens (Human), UniProt P28223); assay: Screening for 5-HT2A inverse agonistic activity (NIH3T3-5-HT2A R cells, Bright-Glo luciferase, 120 h); format: cell-based; settings: NIH3T3-5HT2AR cells, cell inhibition rate
Experimental: • Cell lines: Adherent cells NIH3T3-5-HT2A R • Cell culture medium: DMEM+10% FBS (purchased from GBICO) • Cell culture plate: White-wall clear-bottom 96-well plate (purchased from Perkin Elmer) • Detection kit: Bright-Glo™ Luciferase (purchased from Promega) • Detection instrument: BioTek multifunctional microplate reader
NIH3T3-5HT2AR cells in the logarithmic growth phase were seeded into a white-wall clear-bottom 96-well plate at a density of 1000 cells per well, and cultured overnight in a 37° C., 5% CO2 incubator. […] On the sixth day, a Bright-Glo™ Luciferase reagent with a volume equal to that of cell sap was added to the cells, and the cells were incubated at room temperature in the dark for 20 min. […] The data was processed with GraphPad Prism 7.0 to obtain a cell inhibition rate curve, and the IC50 was calculated.
Cell inhibition rate (%)=[100−(Lum test drug−Lum culture solution)/(Lum cell control−Lum culture solution)×100]%

hERG potassium channels = hERG potassium channels (Homo sapiens (Human), UniProt Q12809); assay: hERG inhibitory activity, whole-cell patch clamp in CHO-hERG cells; settings: read-out: hERG inhibitory activity IC50; CHO-hERG cells, whole-cell patch clamp, tail current at -50 mV
Experimental: • Name: Dimethyl sulfoxide (DMSO)
• Species & strains: CHO-hERG cell lines (Chinese hamster ovary cells stably expressing hERG channels) • Culture medium: 90% F12, 10% fetal bovine serum, 100 μg/mL G418 and 100 μg/mL hygromycin B • Culture conditions: 5% CO2, 37° C. incubator • Freezing conditions: Liquid nitrogen
Digestion was performed at room temperature for 3-5 min. The digestion solution was pipetted, and the cells were resuspended in extracellular fluid and transferred to an experimental dish for electrophysiological recording for later use.
On the day of the test, the compound was diluted with DMSO to an intermediate concentration. 10 μL of compound with the intermediate concentration was taken, transferred to 4990 μL of extracellular fluid, and subjected to 500-fold dilution to obtain a final concentration to be tested.
CHO (Chinese Hamster Ovary) cells stably expressing hERG potassium channels were taken, and hERG potassium channel currents were recorded at room temperature by means of a whole-cell patch-clamp technique. A glass microelectrode was formed by pulling a glass electrode blank (BF150-86-10, Sutter) with a glass microelectrode puller. The tip resistance was about 2-5 MΩ after perfusion of a pippette solution. The glass microelectrode could be connected to a patch clamp amplifier by inserting the glass microelectrode into an amplifier probe. Clamping voltages and data recording were controlled and recorded by a computer with pClamp 10 software, with a sampling frequency of 10 kHz and a filtering frequency of 2 kHz. After the whole-cell recording was obtained, the cells were clamped at −80 mV, and the step voltage evoking hERG potassium current (I hERG) was changed from −80 mV to +20 mV by giving a 2 s depolarization voltage and then repolarized to −50 mV for 1 s, and returned to −80 mV. Such voltage stimulation was given every 10 s, and the administration process was started after it was determined that the hERG potassium currents were stable (1 min). The compound at each test concentration was given at least 1 min, and at least 2 cells (n≥2) were tested for each concentration.
Data analysis was performed by means of pClamp 10 and GraphPad Prism 5.0 software.
The formula for calculating the degree of inhibition of different compound concentrations on hERG potassium currents (the hERG tail current peak value evoked at −50 mV) was:
Y=Bottom+(Top−Bottom)/(1+10^((LogIC50−X)*HillSlope))
wherein X is a Log value of a test concentration of a test sample, Y is the inhibition percentage at a corresponding concentration, and Bottom and Top are the minimum inhibition percentage and the maximum inhibition percentage, respectively.

5-HT2A receptor [5] = molecular target: T1, 5-HT2A receptor; assay: Test for 5-HT2A antagonistic activity (calcium ion antagonism, FLIPR, CHO-K1/5-HT2A cells); format: cell-based; settings: 100 nM a-methyl-5-HT, Ca2+ signal
Experimental: • Cell lines: CHO-K1/5-HT2A (Chempartner) • Cell culture medium: DMEM/F12+10% FBS (purchased from GBICO) • Cell culture plate: 384-well Assay Plate (purchased from Corning) • Detection kit: FLIPR® Calcium 4 Assay Kit (purchased from Molecular Devices)
After that, centrifugation was performed to remove the culture medium in the cell culture plate. Dye was added, and the cells were incubated in a 37° C., 5% CO2 incubator for another 1 h. The cell culture plate was placed on the FLIPR. A compound to be tested was added, and the Ca^2+ signal was detected, wherein the compound to be tested was subjected to 3-fold gradient dilution with PBS to obtain 10 concentrations, with the highest concentration of 10 uM, and double replicate wells were set up. […] In order to determine the test stability, risperidone was used as a positive control. The data were processed with GraphPad Prism 7.0 to obtain a cell inhibition rate curve, and the IC50 was calculated.
Inhibition rate (%)=100%−[(signal value of the compound to be tested−signal value of the test solution)/(the maximum signal value−the signal value of the test solution)]×100%

T1 sequence (P28223 whole entry): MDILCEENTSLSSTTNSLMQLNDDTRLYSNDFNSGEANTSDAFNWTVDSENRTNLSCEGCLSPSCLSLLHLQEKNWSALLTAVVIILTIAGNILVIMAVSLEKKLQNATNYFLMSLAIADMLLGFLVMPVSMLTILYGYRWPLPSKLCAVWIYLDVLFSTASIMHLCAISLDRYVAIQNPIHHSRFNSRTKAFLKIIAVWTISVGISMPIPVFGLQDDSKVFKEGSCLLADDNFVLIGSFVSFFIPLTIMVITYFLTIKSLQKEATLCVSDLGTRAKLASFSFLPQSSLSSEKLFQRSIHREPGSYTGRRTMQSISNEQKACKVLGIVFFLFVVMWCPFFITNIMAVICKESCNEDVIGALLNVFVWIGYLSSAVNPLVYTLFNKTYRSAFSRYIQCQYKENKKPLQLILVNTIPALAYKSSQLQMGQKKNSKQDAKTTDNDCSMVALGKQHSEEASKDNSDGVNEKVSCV
Sequence of hERG potassium channels (Q12809 whole entry): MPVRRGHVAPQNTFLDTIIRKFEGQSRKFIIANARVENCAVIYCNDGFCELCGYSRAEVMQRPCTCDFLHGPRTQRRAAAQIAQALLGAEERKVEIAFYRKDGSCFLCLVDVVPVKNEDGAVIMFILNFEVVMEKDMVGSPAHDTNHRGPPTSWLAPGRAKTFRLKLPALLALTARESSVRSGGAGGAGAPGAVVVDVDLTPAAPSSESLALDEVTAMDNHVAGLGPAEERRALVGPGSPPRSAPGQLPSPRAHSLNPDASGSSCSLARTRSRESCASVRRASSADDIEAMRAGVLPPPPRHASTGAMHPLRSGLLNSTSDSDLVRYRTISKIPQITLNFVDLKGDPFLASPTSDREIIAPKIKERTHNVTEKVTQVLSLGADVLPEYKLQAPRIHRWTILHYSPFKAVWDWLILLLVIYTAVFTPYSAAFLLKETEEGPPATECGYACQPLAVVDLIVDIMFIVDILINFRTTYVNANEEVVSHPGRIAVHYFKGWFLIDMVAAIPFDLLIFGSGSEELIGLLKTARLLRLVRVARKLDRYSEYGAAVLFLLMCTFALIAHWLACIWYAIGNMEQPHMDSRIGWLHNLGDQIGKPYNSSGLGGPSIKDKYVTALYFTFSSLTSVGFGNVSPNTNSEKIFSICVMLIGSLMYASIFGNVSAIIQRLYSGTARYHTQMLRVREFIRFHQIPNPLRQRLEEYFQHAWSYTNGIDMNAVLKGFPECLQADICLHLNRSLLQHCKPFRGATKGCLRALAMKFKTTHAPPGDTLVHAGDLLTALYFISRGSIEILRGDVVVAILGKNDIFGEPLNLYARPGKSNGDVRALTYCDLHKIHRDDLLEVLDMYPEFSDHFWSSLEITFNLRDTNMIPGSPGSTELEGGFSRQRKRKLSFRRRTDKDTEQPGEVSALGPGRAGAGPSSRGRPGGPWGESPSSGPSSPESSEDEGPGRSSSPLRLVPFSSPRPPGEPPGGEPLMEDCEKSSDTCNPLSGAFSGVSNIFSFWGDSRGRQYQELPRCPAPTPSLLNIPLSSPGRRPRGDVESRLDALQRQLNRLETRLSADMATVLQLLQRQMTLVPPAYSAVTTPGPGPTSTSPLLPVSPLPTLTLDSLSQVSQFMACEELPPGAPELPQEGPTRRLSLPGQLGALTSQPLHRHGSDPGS

Structure (SMILES) | AUClast relative to pimavanserin ([1]; 46.7 μmol/kg) [times] | Cmax relative to pimavanserin ([1]; 46.7 μmol/kg) [times] | T1/2 compared with pimavanserin ([1]; 46.7 μmol/kg) | AUC(0-t) [1] [µM·h] | Cmax [1] [nM] | MRT last [1] [h] | Tmax [1] [h] | half-life [1] [min] | Remaining amount 60 min later [2] [%] | Stability compared with pimavanserin ([2]; dog liver microsomes in vitro) | Remaining amount 60 min later [3] [%] | Stability compared with pimavanserin ([3]; human liver microsomes in vitro) | IC50 (5-HT2A receptor [4]) [nM] | IC50 (hERG potassium channels) [nM] | IC50 (5-HT2A receptor [5]) [nM]
CN1CCC(N(Cc2ccc(F)cn2)C(=O)NCc2ccc(OCC(F)(F)F)cc2)CC1 [Compound 59] | 4 | 2 | higher than that of pimavanserin | 17 ± 2.97 | 1140 ± 365 | 8.66 ± 0.89 | 5.88 ± 5.14 | 331 ± 79.8 | 76.37 | obviously superior stability to that of pimavanserin | 89.19 | obviously superior stability to that of pimavanserin | 2.04 | 810 | 0.54
CC(C)COc1ccc(CNC(=O)N(Cc2ccc(F)cc2)C2CCN(C)CC2)cc1 [Pimavanserin, reference compound] |  |  |  | 4.29 ± 1.66 | 536 ± 260 | 5.61 ± 0.34 | 2.75 ± 1.26 | 143 ± 48 | 29.72 |  | 77.44 |  |  |  | 
